Reference: the supplement of paper PMC10307832

Key:
Assay in all cases: relative viability (nuclei count vs DMSO), 5 days (fraction); higher = more cells survive
[1] = compound: CS(=O)(=O)N1CCN(Cc2cc3nc(-c4cccc5[nH]ncc45)nc(N4CCOCC4)c3s2)CC1 [Pictilisib] + COc1cccc2cc(-c3nc([C@H]4CC[C@H](C(=O)O)CC4)n4ncnc(N)c34)[nH]c12 [OSI-027] (partner 0.5 µM)
How it was run: (§1)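 Medians of duplicate plates are given as relative viability. That measure is the nuclei count in treated wells divided by the count in vehicle wells. Counts were taken on 4× images of lung cancer cell lines in 1536-well plates, 5 days after pin-tool dosing the day after seeding with one drug alone or a fixed anchor-drug dose plus five library-drug doses (not always all listed) in √10 steps.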

[2] = compound: CS(=O)(=O)N1CCN(Cc2cc3nc(-c4cccc5[nH]ncc45)nc(N4CCOCC4)c3s2)CC1 [Pictilisib] + C[C@@H](Oc1cc(-c2cnn(C3CCNCC3)c2)cnc1N)c1c(Cl)ccc(F)c1Cl [Crizotinib] (partner 1 µM)
How it was run: as §1

[3] = compound: CS(=O)(=O)N1CCN(Cc2cc3nc(-c4cccc5[nH]ncc45)nc(N4CCOCC4)c3s2)CC1 [Pictilisib] + O=C(c1cc(Cc2n[nH]c(=O)c3ccccc23)ccc1F)N1CCN(C(=O)C2CC2)CC1 [Olaparib] (partner 8 µM)
How it was run: as §1

[4] = compound: NC1(c2ccc(-c3nc4ccn5c(=O)[nH]nc5c4cc3-c3ccccc3)cc2)CCC1 [MK-2206] + COc1cc2c(Oc3ccc(NC(=O)C4(C(=O)Nc5ccc(F)cc5)CC4)cc3F)ccnc2cc1OCCCN1CCOCC1 [Foretinib] (partner 0.25 µM)
How it was run: as §1

[5] = compound: NC1(c2ccc(-c3nc4ccn5c(=O)[nH]nc5c4cc3-c3ccccc3)cc2)CCC1 [MK-2206] + O=C(c1cc(Cc2n[nH]c(=O)c3ccccc23)ccc1F)N1CCN(C(=O)C2CC2)CC1 [Olaparib] (partner 8 µM)
How it was run: as §1

| Cell Line | relative viability ([1]; first compound 0.02 µM) | relative viability ([1]; first compound 0.06325 µM) | relative viability ([1]; first compound 0.6325 µM) | relative viability ([1]; first compound 2 µM) | relative viability ([2]; first compound 0.02 µM) | relative viability ([2]; first compound 0.06325 µM) | relative viability ([2]; first compound 0.6325 µM) | relative viability ([2]; first compound 2 µM) | relative viability ([3]; first compound 0.02 µM) | relative viability ([3]; first compound 0.06325 µM) | relative viability ([3]; first compound 0.6325 µM) | relative viability ([3]; first compound 2 µM) | relative viability ([4]; first compound 0.01 µM) | relative viability ([4]; first compound 0.03162 µM) | relative viability ([4]; first compound 0.3162 µM) | relative viability ([4]; first compound 1 µM) | relative viability ([5]; first compound 0.01 µM) | relative viability ([5]; first compound 0.03162 µM) | relative viability ([5]; first compound 0.3162 µM) | relative viability ([5]; first compound 1 µM) |
| --- | --- | --- | --- | --- | --- | --- | --- | --- | --- | --- | --- | --- | --- | --- | --- | --- | --- | --- | --- | --- |
| NCI-H596 | 0.719 | 0.729 | 0.353 | 0.296 | 0.91 | 1.05 | 0.631 | 0.354 | 0.621 | 0.642 | 0.567 | 0.338 | 1.02 | 0.921 | 0.677 | 0.77 | 0.745 | 0.698 | 0.732 | 0.688 |
| LU99A | 0.286 | 0.262 | 0.263 | 0.214 | 0.56 | 0.545 | 0.44 | 0.346 | 0.273 | 0.301 | 0.254 | 0.216 | 0.805 | 0.774 | 0.847 | 0.816 | 0.283 | 0.231 | 0.251 | 0.287 |
| LC-2-ad | 0.881 | 0.781 | 0.475 | 0.396 | 0.443 | 0.52 | 0.392 | 0.359 | 0.745 | 0.758 | 0.788 | 0.656 | 0.864 | 0.952 | 0.846 | 0.889 | 0.662 | 0.73 | 0.767 | 0.795 |
| NCI-H1650 | 0.677 | 0.713 | 0.368 | 0.207 | 1.02 | 1.1 | 1.2 | 0.395 | 0.593 | 0.759 | 0.761 | 0.691 | 1.28 | 1.15 | 0.864 | 0.947 | 0.72 | 0.864 | 0.969 | 0.957 |
| NCI-H1915 | 0.618 | 0.616 | 0.639 | 0.533 | 0.855 | 1 | 0.889 | 0.898 | 0.257 | 0.277 | 0.28 | 0.225 | 1.08 | 1.16 | 1.07 | 1.05 | 0.238 | 0.246 | 0.257 | 0.254 |
| ABC-1 | 0.434 | 0.462 | 0.337 | 0.335 | 0.96 | 1.2 | 1.2 | 0.507 | 0.781 | 0.721 | 0.79 | 0.721 | 1.16 | 0.965 | 1.17 | 1.07 | 0.898 | 0.841 | 1.1 | 1.08 |
| HCC-78 | 0.334 | 0.376 | 0.285 | 0.275 | 0.321 | 0.305 | 0.222 | 0.18 | 0.727 | 0.548 | 0.529 | 0.351 | 0.557 |  | 0.496 | 0.459 | 0.932 | 1.06 | 0.716 | 0.739 |
| LXF-289 | 0.817 | 0.827 | 0.566 | 0.397 | 0.862 | 0.837 | 0.843 | 0.752 | 1.1 | 1.14 | 1.03 | 0.631 | 0.932 | 0.941 | 1.01 | 1.05 | 1.05 | 1.04 | 1.09 | 1.06 |
| 201T | 0.757 | 0.683 | 0.503 | 0.281 | 1.04 | 1.04 | 1.03 | 0.788 | 0.844 | 0.815 | 0.811 | 0.604 | 1.1 | 1.2 | 1.13 | 1.1 | 0.825 | 0.857 | 0.858 | 0.856 |
| NCI-H1734 | 0.552 | 0.554 | 0.291 | 0.224 | 0.739 | 0.648 | 0.43 | 0.296 | 0.582 | 0.581 | 0.477 | 0.215 | 1 | 0.994 | 0.682 | 0.64 | 0.63 | 0.667 | 0.648 | 0.507 |
| NCI-H2126 | 0.706 | 0.75 | 0.541 | 0.427 | 0.998 | 0.988 | 0.972 | 0.688 | 0.911 | 0.894 | 0.713 | 0.496 | 1.14 | 1.17 | 1.18 | 1.13 | 0.932 | 1.01 | 0.87 | 0.925 |
| LOU-NH91 | 0.747 | 0.757 | 0.666 | 0.464 | 0.725 | 0.708 | 0.716 | 0.571 | 0.946 | 0.908 | 0.875 | 0.695 | 0.984 | 0.958 | 0.927 | 0.917 | 0.901 | 0.98 | 0.91 | 0.847 |
| NCI-H1651 | 0.643 | 0.584 | 0.565 | 0.291 | 0.855 | 0.863 | 0.84 | 0.683 | 0.18 | 0.187 | 0.21 | 0.191 | 0.724 | 0.658 | 0.834 | 0.733 | 0.178 | 0.154 | 0.174 | 0.181 |
| HCC-366 | 0.955 | 0.822 | 0.432 | 0.104 | 0.493 | 0.697 | 0.251 | 0.0577 | 0.401 | 0.357 | 0.199 | 0.077 | 0.924 | 1.03 | 0.869 | 0.975 | 0.367 | 0.472 | 0.328 | 0.322 |
| EKVX | 0.697 | 0.352 | 0.561 | 0.269 | 0.898 | 1.15 | 0.801 | 0.493 | 0.962 | 0.828 | 0.777 | 0.406 | 0.877 | 0.673 | 0.855 | 0.387 | 0.866 | 0.777 | 0.745 | 0.67 |
| NCI-H1993 | 0.514 | 0.47 | 0.592 | 0.646 | 0.766 | 0.691 | 0.726 | 0.638 | 0.964 | 0.94 | 0.763 | 0.388 | 0.761 | 0.773 | 0.665 | 0.57 | 0.941 | 1.05 | 0.99 | 0.652 |
